Data as given in patent US11397182B2, “Methods for prognosing and preventing metastatic liver disease” (CORNELL UNIVERSITY, priority 2014, dated 2022).

Legend:
fibronectin = assay: Tamoxifen-driven conditional FN knockout during PAN02 exosome education, liver immunofluorescence; format: in vivo, mouse; details: tamoxifen treatment of Rosa-CreER+; Fn fl/fl mice during PAN02 exosome education
Text: To generate inducible FN knockout mice, we crossed B6; 129-Gt(ROSA)26SOR^tm1(cre/ERT2)Tyj/J mice expressing tamoxifen-sensitive Cre under the Gt(Rosa)26 or promoter (Jackson Laboratories, stock 008463) with mice homozygous for a floxed allele of fibronectin (Fn^fl/fl, generously provided by R. Fässler, Max Planck Institute of Biochemistry) (Sakai et al., “Plasma Fibronectin Supports Neuronal Survival and Reduces Brain Injury Following Transient Focal Cerebral Ischemia but is Not Essential for Skin-Wound Healing and Hemostasis,” Nat. Med. 7:324-330 (2001), which is hereby incorporated by reference in its entirety). […] For verification of Fn deletion, liver FN expression was evaluated by immunofluorescence.
For histological analysis, tissues were dissected and fixed in a mix of 2% PFA and 20% sucrose solution overnight, and then embedded in Tissue-tek O.C.T. (Electron Microscopy Sciences). […] GFP and mCherry′ cells were detected by their intrinsic signal. Fluorescent images were obtained using a Nikon confocal microscope (Eclipse TE2000U) and analyzed using Nikon software (EZ-C1 3.6). FN and αSMA expression were quantified using ImageJ Software (NIH) by determining the ratio between the areas of FN and DAPI staining, expressed in arbitrary units (a.u.).

TGF-beta type I receptor = target: T1, TGF-beta type I receptor (Mus musculus, UniProt Q64729); assay: Systemic TGFβ receptor inhibition during PAN02 exosome education, liver immunofluorescence; format: in vivo; details: A83-01 i.p. during the three-week course of PAN02 exosome education
T1 construct: from tissue; host or cells: living C57Bl/6 mice; liver analysed by immunofluorescence
T1 sequence (Q64729 30-503): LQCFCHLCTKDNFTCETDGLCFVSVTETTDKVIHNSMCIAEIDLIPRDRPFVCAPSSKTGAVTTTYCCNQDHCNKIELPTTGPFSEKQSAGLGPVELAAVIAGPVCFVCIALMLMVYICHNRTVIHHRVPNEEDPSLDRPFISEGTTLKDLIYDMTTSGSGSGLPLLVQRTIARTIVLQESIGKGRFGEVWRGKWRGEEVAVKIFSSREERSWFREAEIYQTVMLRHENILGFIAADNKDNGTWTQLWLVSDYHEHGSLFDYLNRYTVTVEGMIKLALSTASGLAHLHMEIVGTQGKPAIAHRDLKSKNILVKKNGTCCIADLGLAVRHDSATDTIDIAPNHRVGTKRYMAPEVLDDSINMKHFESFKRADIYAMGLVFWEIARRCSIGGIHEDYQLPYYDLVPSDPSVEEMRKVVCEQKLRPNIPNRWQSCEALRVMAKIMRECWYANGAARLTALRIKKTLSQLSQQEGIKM
Method: Five micrograms of total exosomal protein was injected into the retro-orbital venous sinus in a total volume of 100 μl PBS. For education experiments, mice received 5 μg of exosomes every other day, 3 times a week. For exosome-tracking experiments, purified exosomes were fluorescently labelled using PKH67 membrane dye (Sigma). Labelled exosomes were washed in 20 ml of PBS, collected by ultracentrifugation, and resuspended in PBS. In experiments involving evaluation of exosome incorporation, labelled exosomes were injected 24 h before tissue collection and analysis for exosome^+ cells was conducted by flow cytometry or immunofluorescence. For exosome-tracking experiments, 5 μg of non-tumour exosomes from normal pancreas were used as controls. Unlabeled exosomes were used as controls of signal specificity. For education experiments, retro-orbital injection of PBS or normal pancreata exosomes was used in control groups.
For systemic TGFβ receptor inhibition, mice were treated with intraperitoneal injections of A83-01 (Santa Cruz). Mice were administered 10 μg of A83-01 (diluted in 100 μl of dimethylsulphoxide) per gram of mouse weight for a total of 9 doses, every other day, for the three weeks of PAN02 exosome education.
For histological analysis, tissues were dissected and fixed in a mix of 2% PFA and 20% sucrose solution overnight, and then embedded in Tissue-tek O.C.T. (Electron Microscopy Sciences). Blocks were frozen in a dry ice and ethanol bath. […] GFP and mCherry′ cells were detected by their intrinsic signal. Fluorescent images were obtained using a Nikon confocal microscope (Eclipse TE2000U) and analyzed using Nikon software (EZ-C1 3.6). FN and αSMA expression were quantified using ImageJ Software (NIH) by determining the ratio between the areas of FN and DAPI staining, expressed in arbitrary units (a.u.).

CC/C(=C(\c1ccccc1)c1ccc(OCCN(C)C)cc1)c1ccccc1 [tamoxifen]
FN deposition in the liver (fibronectin): reduced to control
αSMA expression in the liver (fibronectin): not affected

Cc1cccc(-c2nn(C(=S)Nc3ccccc3)cc2-c2ccnc3ccccc23)n1 [A83-01, 3-(6-Methyl-2-pyridinyl)-N-phenyl-4-(4-quinolinyl)-1H-pyrazole-1-carbothioamide]
F4/80+ macrophage migration to the liver (TGF-beta type I receptor): reduced
FN deposition in the liver (TGF-beta type I receptor): reduced
frequency of αSMA+ hStCs in the liver (TGF-beta type I receptor): reduced
